Data reported in article PMC10257182, “Discovery of senolytics using machine learning” (Nature Communications, 2023).
“And” between values parts separate entries of the source, which are not always exact repeats. Equal values may be shown once. Where a name gives a salt, the structure may show the parent alone. Read-outs that look alike come from different tables or passages of the source.

System: non-senescent control IMR90 ER:RAS cells
Assay: Nuclei count (Hoechst, high content imaging) senolytic assay, OIS model, non-senescent control cells
Assay type: cell-based, human
Method in brief: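 Readout is automated image-based counting of Hoechst-stained nuclei per well, with loss of cells relative to untreated wells taken as cell death. Senescent (4-OHT, 100 nM) and control IMR90 ER:RAS cells were exposed to compounds for 72 h at 10 nM to 10 μM final.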

## C[C@H](CCC(=O)NCCS(=O)(=O)O)[C@H]1CC[C@H]2[C@@H]3[C@H](O)C[C@@H]4C[C@H](O)CC[C@]4(C)[C@H]3C[C@H](O)[C@]12C [Taurocholic acid sodium, taurocholic acid sodium salt hydrate]
Homo sapiens, IMR-90, 72 h, read-out: Mean % Cell Survival, Control, log (dose) [M] -5, 72 h, mean n=3 (Fig 3C)
  viability at 10 µM: 105%
Homo sapiens, IMR-90, 72 h, read-out: Mean % Cell Survival, Control, log (dose) [M] -5.33, 72 h, mean n=3 (Fig 3C)
  viability at 4.677 µM: 107%
Homo sapiens, IMR-90, 72 h, read-out: Mean % Cell Survival, Control, log (dose) [M] -5.66, 72 h, mean n=3 (Fig 3C)
  viability at 2.188 µM: 115%
Homo sapiens, IMR-90, 72 h, read-out: Mean % Cell Survival, Control, log (dose) [M] -6, 72 h, mean n=3 (Fig 3C)
  viability at 1 µM: 108%
Homo sapiens, IMR-90, 72 h, read-out: Mean % Cell Survival, Control, log (dose) [M] -6.33, 72 h, mean n=3 (Fig 3C)
  viability at 0.4677 µM: 104%
Homo sapiens, IMR-90, 72 h, read-out: Mean % Cell Survival, Control, log (dose) [M] -6.66, 72 h, mean n=3 (Fig 3C)
  viability at 0.2188 µM: 95.4%
Homo sapiens, IMR-90, 72 h, read-out: Mean % Cell Survival, Control, log (dose) [M] -7, 72 h, mean n=3 (Fig 3C)
  viability at 0.1 µM: 81%
Homo sapiens, IMR-90, 72 h, read-out: Mean % Cell Survival, Control, log (dose) [M] -7.33, 72 h, mean n=3 (Fig 3C)
  viability at 0.04677 µM: 94.8%
Homo sapiens, IMR-90, 72 h, read-out: Mean % Cell Survival, Control, log (dose) [M] -7.66, 72 h, mean n=3 (Fig 3C)
  viability at 0.02188 µM: 103%
Homo sapiens, IMR-90, 72 h, read-out: Mean % Cell Survival, Control, log (dose) [M] -8, 72 h, mean n=3 (Fig 3C)
  viability at 0.01 µM: 98.6%
Homo sapiens, IMR-90, read-out: % Cell Survival, Control cells, log (dose) [M] -5, individual replicates, SUP FIG 4C
  viability at 10 µM: 105%
Homo sapiens, IMR-90, read-out: % Cell Survival, Control cells, log (dose) [M] -5.33, individual replicates, SUP FIG 4C
  viability at 4.677 µM: 105%
Homo sapiens, IMR-90, read-out: % Cell Survival, Control cells, log (dose) [M] -5.66, individual replicates, SUP FIG 4C
  viability at 2.188 µM: 122%
Homo sapiens, IMR-90, read-out: % Cell Survival, Control cells, log (dose) [M] -6.66, individual replicates, SUP FIG 4C
  viability at 0.2188 µM: 98.1%
Homo sapiens, IMR-90, read-out: % Cell Survival, Control cells, log (dose) [M] -7.66, individual replicates, SUP FIG 4C
  viability at 0.02188 µM: 103%
Homo sapiens, IMR-90, read-out: % Cell Survival, Control cells, log (dose) [M] -8, individual replicates, SUP FIG 4C
  viability at 0.01 µM: 95%
Homo sapiens, IMR-90, read-out: % Cell Survival, Control, log (dose) [M] -5
  viability at 10 µM: 101%
Homo sapiens, IMR-90, read-out: % Cell Survival, Control, log (dose) [M] -5.33
  viability at 4.68 µM: 103%
Homo sapiens, IMR-90, read-out: % Cell Survival, Control, log (dose) [M] -5.66
  viability at 2.19 µM: 108%
Homo sapiens, IMR-90, read-out: % Cell Survival, Control, log (dose) [M] -6
  viability at 1 µM: 99.9%
Homo sapiens, IMR-90, read-out: % Cell Survival, Control, log (dose) [M] -6.33
  viability at 0.468 µM: 102%
Homo sapiens, IMR-90, read-out: % Cell Survival, Control, log (dose) [M] -6.66
  viability at 0.219 µM: 100%
Homo sapiens, IMR-90, read-out: % Cell Survival, Control, log (dose) [M] -7
  viability at 0.1 µM: 87.4%
Homo sapiens, IMR-90, read-out: % Cell Survival, Control, log (dose) [M] -7.33
  viability at 0.04677 µM: 102%
Homo sapiens, IMR-90, read-out: % Cell Survival, Control, log (dose) [M] -7.66
  viability at 0.0219 µM: 97.8%
Homo sapiens, IMR-90, read-out: % Cell Survival, Control, log (dose) [M] -8
  viability at 0.01 µM: 95.8%

## COC[C@H]1C[C@@H](c2nc(-c3ccc4c(c3)COc3cc5c(ccc6nc([C@@H]7CC[C@H](C)N7C(=O)[C@@H](NC(=O)OC)C(C)C)[nH]c65)cc3-4)c[nH]2)N(C(=O)[C@H](NC(=O)OC)c2ccccc2)C1 [Velpatasvir, velpatasvir, reference compound]
Homo sapiens, IMR-90, 72 h, Control, log (dose) [M] -5, 72 h, mean n=3 (Fig 3C), read-out: Mean % Cell Survival
  viability at 10 µM: 119%
Homo sapiens, IMR-90, 72 h, Control, log (dose) [M] -5.33, 72 h, mean n=3 (Fig 3C), read-out: Mean % Cell Survival
  viability at 4.677 µM: 116%
Homo sapiens, IMR-90, 72 h, Control, log (dose) [M] -5.66, 72 h, mean n=3 (Fig 3C), read-out: Mean % Cell Survival
  viability at 2.188 µM: 113%
Homo sapiens, IMR-90, 72 h, Control, log (dose) [M] -6, 72 h, mean n=3 (Fig 3C), read-out: Mean % Cell Survival
  viability at 1 µM: 115%
Homo sapiens, IMR-90, 72 h, Control, log (dose) [M] -6.33, 72 h, mean n=3 (Fig 3C), read-out: Mean % Cell Survival
  viability at 0.4677 µM: 86.1%
Homo sapiens, IMR-90, 72 h, Control, log (dose) [M] -6.66, 72 h, mean n=3 (Fig 3C), read-out: Mean % Cell Survival
  viability at 0.2188 µM: 99.9%
Homo sapiens, IMR-90, 72 h, Control, log (dose) [M] -7, 72 h, mean n=3 (Fig 3C), read-out: Mean % Cell Survival
  viability at 0.1 µM: 98.3%
Homo sapiens, IMR-90, 72 h, Control, log (dose) [M] -7.33, 72 h, mean n=3 (Fig 3C), read-out: Mean % Cell Survival
  viability at 0.04677 µM: 106%
Homo sapiens, IMR-90, 72 h, Control, log (dose) [M] -7.66, 72 h, mean n=3 (Fig 3C), read-out: Mean % Cell Survival
  viability at 0.02188 µM: 110%
Homo sapiens, IMR-90, 72 h, Control, log (dose) [M] -8, 72 h, mean n=3 (Fig 3C), read-out: Mean % Cell Survival
  viability at 0.01 µM: 96.2%
Homo sapiens, IMR-90, Control cells, log (dose) [M] -5, individual replicates, SUP FIG 4C, read-out: % Cell Survival
  viability at 10 µM: 113%
Homo sapiens, IMR-90, Control cells, log (dose) [M] -6.66, individual replicates, SUP FIG 4C, read-out: % Cell Survival
  viability at 0.2188 µM: 91.6%
Homo sapiens, IMR-90, Control cells, log (dose) [M] -7.33, individual replicates, SUP FIG 4C, read-out: % Cell Survival
  viability at 0.04677 µM: 101%
Homo sapiens, IMR-90, Control, log (dose) [M] -5, read-out: % Cell Survival
  viability at 10 µM: 82.9%
Homo sapiens, IMR-90, Control, log (dose) [M] -5.33, read-out: % Cell Survival
  viability at 4.68 µM: 85.2%
Homo sapiens, IMR-90, Control, log (dose) [M] -5.66, read-out: % Cell Survival
  viability at 2.19 µM: 80.3%
Homo sapiens, IMR-90, Control, log (dose) [M] -6, read-out: % Cell Survival
  viability at 1 µM: 80.7%
Homo sapiens, IMR-90, Control, log (dose) [M] -6.66, read-out: % Cell Survival
  viability at 0.219 µM: 86%
Homo sapiens, IMR-90, Control, log (dose) [M] -7, read-out: % Cell Survival
  viability at 0.1 µM: 91.2%
Homo sapiens, IMR-90, Control, log (dose) [M] -7.33, read-out: % Cell Survival
  viability at 0.04677 µM: 89.7%
Homo sapiens, IMR-90, Control, log (dose) [M] -7.66, read-out: % Cell Survival
  viability at 0.0219 µM: 95.3%
Homo sapiens, IMR-90, Control, log (dose) [M] -8, read-out: % Cell Survival
  viability at 0.01 µM: 97.1%

## C=Cc1c(C)c2cc3nc(cc4[nH]c(cc5nc(cc1[nH]2)C(C)=C5CCC(=O)O)c(CCC(=O)OC)c4C)[C@@]1(C)C3=CC=C(C(=O)OC)[C@H]1C(=O)OC [Verteporfin, verteporfin, reference compound]
Control cells, log (dose) [M] -5, individual replicates, SUP FIG 4C
  % Cell Survival: 101.159% and 129.718% and 89.9175%
Control cells, log (dose) [M] -5.33, individual replicates, SUP FIG 4C
  % Cell Survival: 94.2029% and 128.701% and 95.0504%
Control cells, log (dose) [M] -5.66, individual replicates, SUP FIG 4C
  % Cell Survival: 94.8792% and 127.571% and 91.1091%
Control cells, log (dose) [M] -6, individual replicates, SUP FIG 4C
  % Cell Survival: 109.082% and 120% and 89.2759%
Control cells, log (dose) [M] -6.33, individual replicates, SUP FIG 4C
  % Cell Survival: 132.367% and 79.661% and 117.324%
Control cells, log (dose) [M] -6.66, individual replicates, SUP FIG 4C
  % Cell Survival: 84.5411% and 110.056% and 78.5518%
Control cells, log (dose) [M] -7, individual replicates, SUP FIG 4C
  % Cell Survival: 102.222% and 109.492% and 85.1512%
Control cells, log (dose) [M] -7.33, individual replicates, SUP FIG 4C
  % Cell Survival: 97.1981% and 115.141% and 84.143%
Control cells, log (dose) [M] -7.66, individual replicates, SUP FIG 4C
  % Cell Survival: 102.705% and 116.158% and 105.408%
Control cells, log (dose) [M] -8, individual replicates, SUP FIG 4C
  % Cell Survival: 88.6957% and 107.684% and 93.9505%
Control, log (dose) [M] -5, 72 h, mean n=3 (Fig 3C)
  Mean % Cell Survival: 106.931%
Control, log (dose) [M] -5.33, 72 h, mean n=3 (Fig 3C)
  Mean % Cell Survival: 105.985%
Control, log (dose) [M] -5.66, 72 h, mean n=3 (Fig 3C)
  Mean % Cell Survival: 104.52%
Control, log (dose) [M] -6, 72 h, mean n=3 (Fig 3C)
  Mean % Cell Survival: 106.119%
Control, log (dose) [M] -6.33, 72 h, mean n=3 (Fig 3C)
  Mean % Cell Survival: 109.784%
Control, log (dose) [M] -6.66, 72 h, mean n=3 (Fig 3C)
  Mean % Cell Survival: 91.0498%
Control, log (dose) [M] -7, 72 h, mean n=3 (Fig 3C)
  Mean % Cell Survival: 98.955%
Control, log (dose) [M] -7.33, 72 h, mean n=3 (Fig 3C)
  Mean % Cell Survival: 98.8274%
Control, log (dose) [M] -7.66, 72 h, mean n=3 (Fig 3C)
  Mean % Cell Survival: 108.09%
Control, log (dose) [M] -8, 72 h, mean n=3 (Fig 3C)
  Mean % Cell Survival: 96.7766%
Control, log (dose) [M] -5
  % Cell Survival: 103.991% and 103.701% and 133.622%
Control, log (dose) [M] -5.33
  % Cell Survival: 95.6459% and 122.354% and 108.369%
Control, log (dose) [M] -5.66
  % Cell Survival: 83.672% and 98.7417% and 101.948%
Control, log (dose) [M] -6
  % Cell Survival: 86.9376% and 90.2295% and 99.9278%
Control, log (dose) [M] -6.33
  % Cell Survival: 101.524% and 93.2642% and 93.3622%
Control, log (dose) [M] -6.66
  % Cell Survival: 98.4035% and 102.221% and 102.958%
Control, log (dose) [M] -7
  % Cell Survival: 87.0827% and 92.5981% and 92.8571%
Control, log (dose) [M] -7.33
  % Cell Survival: 115.893% and 95.1147% and 114.069%
Control, log (dose) [M] -7.66
  % Cell Survival: 103.991% and 94.8187% and 102.958%
Control, log (dose) [M] -8
  % Cell Survival: 101.306% and 100.444% and 92.0635%
